{"source": "patent US8883745B2", "about": "“C—glycolipids with enhanced Th-1 profile” (New York University, priority 2006, dated 2014)", "type_in_all_cases": "in vivo", "key": {"IL-12 [1]": {"test_system": "IL-12", "assay": "IL-12 levels in sera upon i.v. glycolipid administration to C57BL/6 mice (ELISA)", "parameters": "IL-12 levels, test 1 / IL-12 levels, test 2 / IL-12 levels, average / IL-12 levels, Total: unit not given here", "protocol": "(§1) Five- to six-week-old female C57BL/6 mice and BALB/c mice were purchased from Taconic. Each glycolipid was stored at 1 mg/ml in 100% DMSO. Mice were injected intravenously with 1 μg of each glyocolipid diluted in 200 μL sterile phosphate buffered saline (PBS). At indicated time points, sera were collected from each animal, and concentrations of IFN-γ, IL-4, and IL-12 in the sera were evaluated by enzyme-linked immunosorbent assay (ELISA). Serum concentrations of IFN-γ, IL-4, and IL-12 were evaluated using an ELISA kit (eBioscience, San Diego, Calif.). Briefly, 96 well flat-bottom ELISA plates (NUNC) were coated with capture antibody according to the manufacture's recommendation and incubated overnight at 4° C. The plates were washed with PBS+0.05% Tween 20 (PBS-T), then incubated with manufacturer provided blocking solution for 1 hr at room temperature to block non-specific binding sites. After washing with PBS-T, sera diluted 1:10 was added to the wells and incubated for 2 hrs at room temperature. Plates were then incubated at room temperature for 1 hr with biotintylated detection antibody, washed, incubated with avidin conjugated to horse radish peroxidase (HRP) for 30 min at room temperature, washed, and finally incubated with tetramethylbenzidine substrate solution in the dark for 10 minutes at room temperature. The antibodies, avidin-HRP, and substrate solution were all diluted according to the manufacture's recommendation. Reactions were stopped with 2.0N sulfuric acid and the cytokine concentration in each well was determined by comparing the absorbance at 450 nm in each well to known standards. The levels of Th1- and Th2-type cytokines were determined in two different genetic backgrounds, i.e., in C57BL/6 mice and BALB/c mice. The following compounds were administered: A=compound (A-1 trans-conformer), B=compound (A-2), C=compound (A-3), D=compound (A-4), E=compound (A-5), Z=control (PBS alone), CRONY=α-C-GalCer, KRN=α-GalCer, GCK109 (A-1 trans-conformer), GCK151 (A-1 cis-conformer), GCK152 (A-7). The levels of cytokines were measured at 0, 2, 6, 12, 24, 48, and 72 hours after the compound administration. The levels of Th1-type cytokines IFN-γ and IL-12 are summarized in FIGS. 2A-C and 3A-C, respectively. Table 7 provides IFN-γ/IL-4 and IL-12/IL-4 ratios for various compounds, which can be used as indicators of their ability to selectively stimulate Th1-type immune responses."}, "IL-4": {"test_system": "IL-4", "assay": "IL-4 levels in sera upon i.v. glycolipid administration to BALB/c mice (ELISA)", "parameters": "unit not given here", "protocol": "as §1"}, "IL-12 [2]": {"test_system": "IL-12", "assay": "IL-12 levels in sera upon i.v. glycolipid administration to BALB/c mice (ELISA)", "parameters": "IL-12 levels, test 1 / IL-12 levels, test 2 / IL-12 levels, average / IL-12 levels, Total: unit not given here", "protocol": "as §1"}, "IFN-γ": {"test_system": "IFN-γ", "assay": "IFN-γ levels in sera upon i.v. glycolipid administration to BALB/c mice (ELISA)", "parameters": "IFN-γ levels, test 1 / IFN-γ levels, test 2 / IFN-γ levels, average / IFN-γ levels, Total: unit not given here", "details": "BALB/c", "protocol": "as §1"}, "[3]": {"details": "ratio calculated from Tables 1-6"}}}
{"compound": "CCCCCCCCCCCCCCCCC/C=C/CCCCCCCCC(=O)N[C@@H](CC[C@H]1O[C@H](CO)[C@H](O)[C@H](O)[C@H]1O)[C@H](O)[C@H](O)CCCCCCCCCCCCCC", "note": "[A-3]", "values": [{"measurement": "IL-12/IL-4 (B6)", "setting": "IL-12 [1]; C57BL/6, ratio calculated from Tables 1-6", "result": 1.5}, {"measurement": "IL-12 levels, average", "setting": "IL-12 [1]; C57BL/6, serum, hour 0", "result": 5}, {"measurement": "IL-12 levels, test 1", "setting": "IL-12 [1]; C57BL/6, serum, hour 0", "result": 5}, {"measurement": "IL-12 levels, test 2", "setting": "IL-12 [1]; C57BL/6, serum, hour 0", "result": 5}, {"measurement": "IL-12 levels, average", "setting": "IL-12 [1]; C57BL/6, serum, hour 2", "result": 75}, {"measurement": "IL-12 levels, test 1", "setting": "IL-12 [1]; C57BL/6, serum, hour 2", "result": 79}, {"measurement": "IL-12 levels, test 2", "setting": "IL-12 [1]; C57BL/6, serum, hour 2", "result": 71}, {"measurement": "IL-12 levels, average", "setting": "IL-12 [1]; C57BL/6, serum, hour 6", "result": 442}, {"measurement": "IL-12 levels, test 1", "setting": "IL-12 [1]; C57BL/6, serum, hour 6", "result": 451}, {"measurement": "IL-12 levels, test 2", "setting": "IL-12 [1]; C57BL/6, serum, hour 6", "result": 433}, {"measurement": "IL-12 levels, average", "setting": "IL-12 [1]; C57BL/6, serum, hour 12", "result": 608}, {"measurement": "IL-12 levels, test 1", "setting": "IL-12 [1]; C57BL/6, serum, hour 12", "result": 449}, {"measurement": "IL-12 levels, test 2", "setting": "IL-12 [1]; C57BL/6, serum, hour 12", "result": 767}, {"measurement": "IL-12 levels, average", "setting": "IL-12 [1]; C57BL/6, serum, hour 24", "result": 89.5}, {"measurement": "IL-12 levels, test 1", "setting": "IL-12 [1]; C57BL/6, serum, hour 24", "result": 77}, {"measurement": "IL-12 levels, test 2", "setting": "IL-12 [1]; C57BL/6, serum, hour 24", "result": 102}, {"measurement": "IL-12 levels, average", "setting": "IL-12 [1]; C57BL/6, serum, hour 48", "result": 99}, {"measurement": "IL-12 levels, test 1", "setting": "IL-12 [1]; C57BL/6, serum, hour 48", "result": 67}, {"measurement": "IL-12 levels, test 2", "setting": "IL-12 [1]; C57BL/6, serum, hour 48", "result": 131}, {"measurement": "IL-12 levels, average", "setting": "IL-12 [1]; C57BL/6, serum, hour 72", "result": 80.5}, {"measurement": "IL-12 levels, test 1", "setting": "IL-12 [1]; C57BL/6, serum, hour 72", "result": 53}, {"measurement": "IL-12 levels, test 2", "setting": "IL-12 [1]; C57BL/6, serum, hour 72", "result": 108}, {"measurement": "IL-12 levels, Total", "setting": "IL-12 [1]; C57BL/6, serum, total over hours 0-72", "result": 1400}, {"measurement": "IL-4 level, average", "setting": "IL-4; hour 0", "result": 27}, {"measurement": "IL-4 level, test 1", "setting": "IL-4; hour 0", "result": 27}, {"measurement": "IL-4 level, test 2", "setting": "IL-4; hour 0", "result": 27}, {"measurement": "IL-4 level, average", "setting": "IL-4; hour 2", "result": 307.5}, {"measurement": "IL-4 level, test 1", "setting": "IL-4; hour 2", "result": 273}, {"measurement": "IL-4 level, test 2", "setting": "IL-4; hour 2", "result": 342}, {"measurement": "IL-4 level, average", "setting": "IL-4; hour 6", "result": 54.5}, {"measurement": "IL-4 level, test 1", "setting": "IL-4; hour 6", "result": 56}, {"measurement": "IL-4 level, test 2", "setting": "IL-4; hour 6", "result": 53}, {"measurement": "IL-4 level, average", "setting": "IL-4; hour 12", "result": 48}, {"measurement": "IL-4 level, test 1", "setting": "IL-4; hour 12", "result": 44}, {"measurement": "IL-4 level, test 2", "setting": "IL-4; hour 12", "result": 52}, {"measurement": "IL-4 level, average", "setting": "IL-4; hour 24", "result": 44}, {"measurement": "IL-4 level, test 1", "setting": "IL-4; hour 24", "result": 44}, {"measurement": "IL-4 level, test 2", "setting": "IL-4; hour 24", "result": 44}, {"measurement": "IL-4 level, average", "setting": "IL-4; hour 48", "result": 43}, {"measurement": "IL-4 level, test 1", "setting": "IL-4; hour 48", "result": 48}, {"measurement": "IL-4 level, test 2", "setting": "IL-4; hour 48", "result": 38}, {"measurement": "IL-4 level, average", "setting": "IL-4; hour 72", "result": 12.23}, {"measurement": "IL-4 level, test 1", "setting": "IL-4; hour 72", "result": 12.23}, {"measurement": "IL-4 level, test 2", "setting": "IL-4; hour 72", "result": 12.23}, {"measurement": "IL-4 level, Total", "setting": "IL-4; total over hours 0-72", "result": 538}, {"measurement": "IL-12/IL-4 (BALB/c)", "setting": "IL-12 [2]; [3]", "result": 9}, {"measurement": "IL-12 levels, average", "setting": "IL-12 [2]; serum, hour 0", "result": 5}, {"measurement": "IL-12 levels, test 1", "setting": "IL-12 [2]; serum, hour 0", "result": 5}, {"measurement": "IL-12 levels, test 2", "setting": "IL-12 [2]; serum, hour 0", "result": 5}, {"measurement": "IL-12 levels, average", "setting": "IL-12 [2]; serum, hour 2", "result": 240}, {"measurement": "IL-12 levels, test 1", "setting": "IL-12 [2]; serum, hour 2", "result": 362}, {"measurement": "IL-12 levels, test 2", "setting": "IL-12 [2]; serum, hour 2", "result": 118}, {"measurement": "IL-12 levels, average", "setting": "IL-12 [2]; serum, hour 6", "result": 1384.5}, {"measurement": "IL-12 levels, test 1", "setting": "IL-12 [2]; serum, hour 6", "result": 1356}, {"measurement": "IL-12 levels, test 2", "setting": "IL-12 [2]; serum, hour 6", "result": 1413}, {"measurement": "IL-12 levels, average", "setting": "IL-12 [2]; serum, hour 12", "result": 3010.5}, {"measurement": "IL-12 levels, test 1", "setting": "IL-12 [2]; serum, hour 12", "result": 3256}, {"measurement": "IL-12 levels, test 2", "setting": "IL-12 [2]; serum, hour 12", "result": 2765}, {"measurement": "IL-12 levels, average", "setting": "IL-12 [2]; serum, hour 24", "result": 161}, {"measurement": "IL-12 levels, test 1", "setting": "IL-12 [2]; serum, hour 24", "result": 134}, {"measurement": "IL-12 levels, test 2", "setting": "IL-12 [2]; serum, hour 24", "result": 188}, {"measurement": "IL-12 levels, average", "setting": "IL-12 [2]; serum, hour 48", "result": 0}, {"measurement": "IL-12 levels, test 1", "setting": "IL-12 [2]; serum, hour 48", "result": 0}, {"measurement": "IL-12 levels, test 2", "setting": "IL-12 [2]; serum, hour 48", "result": 0}, {"measurement": "IL-12 levels, average", "setting": "IL-12 [2]; serum, hour 72", "result": 75.5}, {"measurement": "IL-12 levels, test 1", "setting": "IL-12 [2]; serum, hour 72", "result": 0}, {"measurement": "IL-12 levels, test 2", "setting": "IL-12 [2]; serum, hour 72", "result": 151}, {"measurement": "IL-12 levels, Total", "setting": "IL-12 [2]; serum, total over hours 0-72", "result": 4878}, {"measurement": "IFN-γ/IL-4 (BALB/c)", "setting": "IFN-γ; [3]", "result": 40}, {"measurement": "IFN-γ levels, average", "setting": "IFN-γ; serum, hour 0", "result": 27}, {"measurement": "IFN-γ levels, test 1", "setting": "IFN-γ; serum, hour 0", "result": 27}, {"measurement": "IFN-γ levels, test 2", "setting": "IFN-γ; serum, hour 0", "result": 27}, {"measurement": "IFN-γ levels, average", "setting": "IFN-γ; serum, hour 2", "result": 163}, {"measurement": "IFN-γ levels, test 1", "setting": "IFN-γ; serum, hour 2", "result": 137}, {"measurement": "IFN-γ levels, test 2", "setting": "IFN-γ; serum, hour 2", "result": 189}, {"measurement": "IFN-γ levels, average", "setting": "IFN-γ; serum, hour 6", "result": 1172}, {"measurement": "IFN-γ levels, test 1", "setting": "IFN-γ; serum, hour 6", "result": 1072}, {"measurement": "IFN-γ levels, test 2", "setting": "IFN-γ; serum, hour 6", "result": 1272}, {"measurement": "IFN-γ levels, average", "setting": "IFN-γ; serum, hour 12", "result": 3938.5}, {"measurement": "IFN-γ levels, test 1", "setting": "IFN-γ; serum, hour 12", "result": 3891}, {"measurement": "IFN-γ levels, test 2", "setting": "IFN-γ; serum, hour 12", "result": 3986}, {"measurement": "IFN-γ levels, average", "setting": "IFN-γ; serum, hour 24", "result": 15700}, {"measurement": "IFN-γ levels, test 1", "setting": "IFN-γ; serum, hour 24", "result": 14100}, {"measurement": "IFN-γ levels, test 2", "setting": "IFN-γ; serum, hour 24", "result": 17300}, {"measurement": "IFN-γ levels, average", "setting": "IFN-γ; serum, hour 48", "result": 224.5}, {"measurement": "IFN-γ levels, test 1", "setting": "IFN-γ; serum, hour 48", "result": 231}, {"measurement": "IFN-γ levels, test 2", "setting": "IFN-γ; serum, hour 48", "result": 218}, {"measurement": "IFN-γ levels, average", "setting": "IFN-γ; serum, hour 72", "result": 61}, {"measurement": "IFN-γ levels, test 1", "setting": "IFN-γ; serum, hour 72", "result": 62}, {"measurement": "IFN-γ levels, test 2", "setting": "IFN-γ; serum, hour 72", "result": 60}, {"measurement": "IFN-γ levels, Total", "setting": "IFN-γ; serum, total over hours 0-72", "result": 21287}]}
